Assay [1] concerns RAW264.7 macrophage cells. The assay can be described thus: M2 marker expression in macrophages treated with conditioned medium of MA-treated cancer cells. Particulars: medium harvested from MA-treated (30 µM) cancer cells in hypoxic condition. Format: cell-based. Here is the method:
Total RNA of the cells was isolated using a GeneJET RNA Purification Kit (Thermo Fisher Scientific, Waltham, MA, USA). One microgram of RNA was reverse-transcribed using a RevertAid reverse transcriptase (Thermo Fisher Scientific, Waltham, MA, USA), and single-stranded cDNA was PCR-amplified using AccPower® PCR PreMix (Bioneer, Daejeon, Korea). The qRT-PCR was performed using the QuantiNova™ SYBR®Green PCR Kit (Qiagen, GmbH, Hilden, Germany) and a Qiagen Rotor-Gene® Q Real-Time PCR Detection System according to the manufacturer’s instructions. PCR products were separated using electrophoresis on 1.5% agarose gel containing ethidium bromide in 1 × Tris-acetate buffer and were visualized under UV light.
To investigate the formation of a capillary-like network of human umbilical vein endothelial cells (HUVECs) through the activation of tumor associated macrophages (TAMs) by lactate secreted by cancer cells, a tube formation assay was performed according to a previous study, with several modifications. For the preparation of conditioned media, HT29 colon cancer cells (3.5 × 10^5 cells) suspended in 2 mL of DMEM were seeded on 6-well plates, with or without addition of 30 µM MA, and incubated under normoxic or hypoxic conditions. […]

The target of the next assay is LDHA (Homo sapiens, UniProt P00338). The assay can be described thus: Intracellular LDH activity in lysates of MA-treated cancer cells. Particulars: for IC50: normoxic. The arrangement: One microgram of total protein from cell or tissue lysates was used for intracellular or in vivo LDH assays; endogenous in cells; host or cells: WiDr, DLD-1, RKO, HT29, MCF7, Huh-7, HepG2, Hep3B, HCC-95, NCI-H1793. The format is cell-based. Here is the method:
A purification of recombinant LDHA was performed as described previously. LDH activity was determined by measuring the decrease of absorbance at 340 nm due to the oxidation of NADH in 20 mM HEPES-K^+, 0.05% bovine serum albumin (BSA), 20 μM NADH, and 2 mM pyruvate (Sigma-Aldrich, St. Louis, MO, USA) at a pH of 7.2 using a spectrofluorometer (Spectramax M2, Molecular Devices, San Jose, CA, USA; excitation 340 nm; emission 460 nm), as described previously. Ten nanograms of recombinant LDHA protein were used in the in vitro LDH activity assay. One microgram of total protein from cell or tissue lysates was used for intracellular or in vivo LDH assays.

For a further assay, the system named is HepG2. The assay can be described thus: Cell viability, MTT assay. Particulars: Homo sapiens, normoxic. The format is cell-based. Here is the method: (§1) Human colon cancer cells (WiDr, DLD-1, RKO, and HT29) and murine Lewis lung carcinoma (LLC) cells were purchased from the American Type Culture Collection (Manassas, VA, USA). Human breast cancer MCF7 cells, human hepatocellular carcinoma cells (Huh-7, HepG2, and Hep3B), and human lung cancer cells (HCC-95 and NCI-H1793) were provided by the Korean Cell Line Bank (Seoul, Korea). The HCC-95 and NCI-H1793 cells were grown in a Roswell park memorial institute medium (RPMI) 1640 medium (HyClone^TM; GE Healthcare, Chicago, IL, USA). All other cells were grown in Dulbecco’s modified eagle medium (DMEM) supplemented with L-glutamine (200 mg/L), 10% (v/v) heat-inactivated fetal bovine serum (FBS; Sigma-Aldrich, St. Louis, MO, USA), and antibiotics (100 U/mL penicillin and 100 μg/mL streptomycin; Thermo Fisher Scientific, Waltham, MA, USA) in a humidified incubator at 37 °C and with 5% CO2 before the experiments. For induction of hypoxia condition (1% oxygen), the cells were cultured were cultured in the mixture of 94% nitrogen and 5% CO2/air at 37 °C for 24 h in cell culture incubator. Cytotoxicity of MA was evaluated using an MTT assay. Briefly, cells were incubated in 24-well plates with specified concentrations of MA for 24 or 48 h. Then, MTT solution (2.0 mg/mL) was added to each well. After 4 h of incubation at 37 °C and 5% CO2 in a cell culture incubator, the conditioned media were removed, and the amount of formazan crystals formed in living cells was estimated by measuring the absorbance at 540 nm using a microplate reader (Spectramax M2; Molecular Devices, CA, USA). The respective percentages of living cells were compared with a control treatment.
A general note: Formazan colour is commonly taken as a measure of viable cells.

A further assay relates to MCF-7. The assay can be described thus: Cell viability, MTT assay. Format: cell-based. Particulars: Homo sapiens, MCF7, normoxic. Here is the method: as §1
A further assay concerns NCI-H1793. The assay can be described thus: Cell viability, MTT assay. The format is cell-based. Particulars: Homo sapiens, normoxic. Here is the method: as §1
The test system of another assay is Huh7. The assay can be described thus: Cell viability, MTT assay. Format: cell-based. Particulars: Homo sapiens, Huh-7, normoxic. Here is the method: as §1
For the next assay, the system named is HT29 cells. The assay can be described thus: Mitochondrial ROS, MitoSOX FACS. The format is cell-based, human. Particulars: 24 h. As to the method:
The production of mitochondrial ROS was determined by MitoSOX™ Red (Thermo Fisher Scientific, Waltham, MA, USA), respectively. Briefly, 5 μM MitoSOX™ Red was added to each cells cultured in conditioned medium and incubated at 37 °C for 10 min. The cells were then washed twice with PBS and the fluorescence intensity was analyzed using a BD FACS Canto II (BD Biosciences, San Jose, CA, USA) measuring excitation/emission at wavelength of 510/580 nm.

This is an account of results in PMC6678097, “Machilin A Inhibits Tumor Growth and Macrophage M2 Polarization Through the Reduction of Lactic Acid” (Cancers, 2019).

As to `C[C@H](Cc1ccc2c(c1)OCO2)[C@@H](C)Cc1ccc2c(c1)OCO2` [MA, bis(3,4-methylenedioxy)-8,8’-lignan], in assay [1], the “Arg1, CD206, YM1, and VEGF expression in macrophages” value is “reduction of Arg1, CD206, YM1, and VEGF expression”. The concentration for half-maximal inhibition (IC50) against LDHA (DLD-1 cells) was determined as 129 ± 24.8 µM; at LDHA (HCC-95 cells), 112 ± 10.1 µM; on LDHA (HT29 cells), 48.4 ± 4.33 µM; against LDHA (Hep3B cells), 48.3 ± 4.13 µM; against LDHA (HepG2 cells) it was 101 ± 40.5 µM; against LDHA (Huh7 cells), 85.1 ± 20.9 µM. The IC50 at LDHA (MCF-7 cells) is 61.2 ± 3.02 µM; against LDHA (NCI-H1793 cells), 64 ± 5.61 µM; at LDHA (RKO cells), 73.7 ± 20.7 µM; on LDHA (WiDr cells), 61.9 ± 8.02 µM; in the assay with HepG2, 156 ± 23.2 µM; in the assay on MCF-7, 217 ± 12.9 µM. Further, the results for the IC50 in the assay on NCI-H1793 and in the assay with Huh7 were 96.7 ± 5.32 µM and 198 ± 26.7 µM, respectively. The “increase of LDHA activity in hypoxic condition” value at LDHA (HT29, machilin A 30 μM, hypoxia) was “significantly reduced”. Also, the “mitochondrial ROS” value in the assay on HT29 cells is recorded as “induced mitochondrial ROS”.

As a reminder, the IC50 is the concentration that gives 50% inhibition. A higher IC50 goes with weaker potency.
